This is an account of results in patent US12384777B2 (Tay Therapeutics Limited, priority 2019, dated 2025).

For series [1], the system named is human liver hepatocytes. Briefly: Intrinsic clearance in human liver hepatocytes. The class given is in vitro ADME. The note with it: human cryopreserved hepatocytes, 0.5 μM test compound. The method, then: Vials of human cryopreserved hepatocytes, supplied by Life Technologies, were thawed according to manufacturer's instructions and cells re-suspended in Williams Medium E (WME) containing cell maintenance supplement pack (CM4000, Life Technologies). Hepatocytes were incubated in suspension (0.5 million cells/mL) in 48 well non-collagen coated cell culture plates for 10 min at 37° C., 5% CO2. Upon addition of an equal volume of supplemented WME containing 1 μM test compound, an aliquot of incubation solution was removed to acetonitrile containing internal standard (final concentration 0.5 μM test compound and a cell density of 0.25 million cells/mL). Similarly, aliquots were removed at 3, 6, 9, 15, 30, 45, 60, 90 and 120 min. 100 μL of 80:20 water:acetonitrile was added to all samples and the analysis plate was centrifuged for 10 min at RT prior to injection and analysis of samples by UPLC-MS/MS. The response (area ratio of test compound to internal standard) was plotted against time using an exponential decay model from which rate of disappearance was calculated.

The subject of series [2] is CD4+ T-cells stimulated by CD2, CD3 and CD28 antibodies. In words: Cellular activity IL-4: reduction of IL-4 levels in activated CD4+ T-cells. The class given is cell-based, human. On the procedure:
• 1. CD4^+ T-cells are isolated from cryopreserved human peripheral blood mononuclear cells (PBMCs) using EasySep™ Kit (Cat. No. 17952, Stemcell Technologies). • 2. CD2, CD3 and CD28 antibodies coated beads from T cell Activation/Expansion Kit (Cat. No. 130-091-441, Miltenyi Biotec) are added to the CD4^+ T-cells at a bead-to-cell ratio of 1:2. • 3. CD4^+ T-cells along with the beads are seeded at 2×10^5 cells/well in a round bottom 96-well plate and treated with different compounds and controls in a total volume of 200 μl. • 4. The cells are cultured for 48 hrs at 37° C., 5% CO2. • 5. Supernatant is collected and IL-4 is analysed by ELISA.

For series [3], the target named is BRD4 BD1 (Homo sapiens (Human), UniProt O60885). In words: Bromodomain binding assay (T7 phage display, qPCR), BRD4 BD1. The note with it: read-out: BRD4 BD1 Kd. On the procedure:
(§1) T7 phage strains displaying bromodomains were grown in parallel in 24-well blocks in an E. coli host derived from the BL21 strain. E. coli were grown to log-phase and infected with T7 phage from a frozen stock (multiplicity of infection=0.4) and incubated with shaking at 32° C. until lysis (90-150 min). The lysates were centrifuged (5,000×g) and filtered (0.2 μm) to remove cell debris. Streptavidin-coated magnetic beads were treated with biotinylated small molecule or acetylated peptide ligands for 30 min at RT to generate affinity resins for bromodomain assays. The ligated beads were blocked with excess biotin and washed with blocking buffer (SeaBlock (Pierce), 1% BSA, 0.05% Tween 20, 1 mM DTT) to remove unbound ligand and to reduce non-specific phage binding. Binding reactions were assembled by combining bromodomains, ligated affinity beads, and test compounds in 1× binding buffer (16% SeaBlock, 0.32×PBS, 0.02% BSA, 0.04% Tween 20, 0.004% Sodium azide, 7.9 mM DTT). Test compounds were prepared as 1000× stocks in 100% DMSO and subsequently diluted 1:25 in MEG. The compounds were then diluted directly into the assays such that the final concentrations of DMSO and MEG were 0.1% and 2.4%, respectively. All reactions were performed in polypropylene 384-well plates in a final volume of 0.02 ml. The assay plates were incubated at RT with shaking for 1 hr and the affinity beads were washed with wash buffer (1×PBS, 0.05% Tween 20). The beads were then re-suspended in elution buffer (1×PBS, 0.05% Tween 20, 2 μM non-biotinylated affinity ligand) and incubated at RT with shaking for 30 min. The bromodomain concentration in the eluates was measured by quantitative polymerase chain reaction (qPCR).
(§2) An 11-point 3-fold serial dilution of each test compound was prepared in 100% DMSO at 1000× final test concentration. All compounds were distributed by acoustic transfer (non-contact dispensing) in 100% DMSO. The compounds were then diluted directly into the assays such that the final concentration of DMSO was 0.09%. Most dissociation constants were determined using a compound top concentration=10,000 nM. If the initial dissociation constant determined was <0.169 nM (the lowest concentration tested), the measurement was repeated with a serial dilution starting at a lower top concentration.
(§3) The same bromodomain assay procedure as that outlined above was used. Example compounds were screened at 30 times their Kd, and results for primary screen binding interactions are reported as ‘% Ctrl’, where lower numbers indicate stronger hits in the matrix.
For orientation: Real-time PCR tracks product formation cycle by cycle.

For series [4], the target named is BRD4 BD2 (Homo sapiens (Human), UniProt O60885). Briefly: Bromodomain binding assay (T7 phage display, qPCR), BRD4 BD2. Conditions: read-out: BRD4 BD2 Kd. On the procedure:
as §1, §2, §3

The mark [5] stands for this setting: Homo sapiens, T-cell, 48 hrs, ELISA, read-out: EC50 reduction of IL-4 levels.
The mark [6] stands for this setting: Homo sapiens, T-cell, read-out: cellular EC50 values, reduction of IL-4 levels.

SMILES strings stand for the structures. Where two headings read alike, the source gives them in different places.

The EC50 is the concentration that produces a half-maximal response. By Kd is commonly meant the equilibrium constant for the complex coming apart. Regarding `Cn1ccc(-c2cn(C)c(=O)c3[nH]ccc23)c(Oc2ccccc2)c1=O` [Example 5, 6-methyl-4-(1-methyl-2-oxo-3-phenoxy-1,2-dihydropyridin-4-yl)-1,6-dihydro-7H-pyrrolo[2,3-c]pyridin-7-one], the “Intrinsic clearance, % Liver Blood Flow” value in series [1] was <34 % Liver Blood Flow. In addition, the EC50 in series [2] (setting [5]) is ≤ 10 nM; in series [2] (setting [6]), < 100 nM. Further, the dissociation constant Kd in series [3] is 10 to 100 nM; in series [4], ≤ 10 nM.

On to `Cn1cc(-c2scnc2Oc2ccccc2)c2cc[nH]c2c1=O` [Example 4, 6-methyl-4-(4-phenoxythiazol-5-yl)-1,6-dihydro-7H-pyrrolo[2,3-c]pyridin-7-one], for which the “Intrinsic clearance, % Liver Blood Flow” value in series [1] is 80 % Liver Blood Flow. In addition, the EC50 in series [2] (setting [5]) is 10 to 100 nM; in series [2] (setting [6]) it was < 100 nM. In addition, the Kd in series [3] is 10 to 100 nM; in series [4] it was ≤ 10 nM.

For `CCCOc1ncsc1-c1cn(C)c(=O)c2[nH]ccc12` [Example 46, 6-methyl-4-(4-propoxythiazol-5-yl)-1,6-dihydro-7H-pyrrolo[2,3-c]pyridin-7-one], in series [1], the “Intrinsic clearance, % Liver Blood Flow” value worked out at 89 % Liver Blood Flow. Further, the EC50 in series [2] (setting [5]) is 10 to 100 nM; in series [2] (setting [6]) it was < 100 nM. Moreover, the Kd in series [3] is 100 to 1000 nM; in series [4] it was 10 to 100 nM.

On to `Cc1cc(F)cc(C)c1Oc1c(-c2cn(C)c(=O)c3[nH]c(C(=O)NC(C)(C)C(F)(F)F)cc23)ccn(C)c1=O` [Example 43], for which the “Intrinsic clearance, % Liver Blood Flow” value in series [1] is given as 38 % Liver Blood Flow. The 50% effective concentration (EC50) in series [2] (setting [5]) lay within 100 to 1000 nM. In addition, the results for the equilibrium dissociation constant (Kd) in series [3] and in series [4] were > 1000 nM and 10 to 100 nM, respectively.

As for `Cn1cc(-c2cc(O)ccc2Oc2ccccc2)ccc1=O` [Example 8, 5-(5-hydroxy-2-phenoxyphenyl)-1-methyl pyridin-2(1H)-one], the “Intrinsic clearance, % Liver Blood Flow” value in series [1] was found to be 95 % Liver Blood Flow. Further, the concentration giving a half-maximal response (EC50) in series [2] (setting [5]) was in the range of 100 to 1000 nM. Besides, in series [3], the Kd is 10 to 100 nM.

On to `Cc1cc(F)cc(C)c1Oc1c(-c2cn(C)c(=O)c3[nH]ccc23)ccn(C)c1=O` [Example 47, 4-(3-(4-fluoro-2,6-dimethylphenoxy)-1-methyl-2-oxo-1,2-dihydropyridin-4-yl)-6-methyl-1,6-dihydro-7H-pyrrolo[2,3-c]pyridin-7-one], for which, in series [2] (48 hrs, ELISA, read-out: EC50 reduction of IL-4 levels), the EC50 is 100 to 1000 nM. Also, the Kd in series [4] is ≤ 10 nM.

Take `Cc1cc(F)cc(C)c1Oc1c(-c2cn(C)c(=O)c3[nH]c(C(=O)NC4(C)CC4(F)F)cc23)ccn(C)c1=O` (centres unmarked) [Example 44, N-(2,2-difluoro-1-methylcyclopropyl)-4-(3-(4-fluoro-2,6-dimethylphenoxy)-1-methyl-2-oxo-1,2-dihydropyridin-4-yl)-6-methyl-7-oxo-6,7-dihydro-1H-pyrrolo[2,3-c]pyridine-2-carboxamide]: in series [1], the “Intrinsic clearance, % Liver Blood Flow” value was 34 % Liver Blood Flow. For the same compound, the EC50 in series [2] (setting [5]) was in the range of 100 to 1000 nM. For the same compound, the dissociation constant (Kd) in series [3] was > 1000 nM; in series [4], 10 to 100 nM.

As for `Cn1cc(-c2scnc2OC2CCC2)c2cc[nH]c2c1=O` [Example 45, 4-(4-cyclobutoxythiazol-5-yl)-6-methyl-1,6-dihydro-7H-pyrrolo[2,3-c]pyridin-7-one], the “Intrinsic clearance, % Liver Blood Flow” value in series [1] is reported as 86 % Liver Blood Flow. Further, the dissociation constant (Kd) in series [3] lay within 100 to 1000 nM; in series [4], 10 to 100 nM.

Consider `Cc1cc(F)cc(C)c1Oc1c(-c2ccc(=O)n(C)c2)ccn(C)c1=O` [Example 39, 3′-(4-fluoro-2,6-dimethylphenoxy)-1,1′-dimethyl-[3,4′-bipyridine]-2′,6(1H,1′H)-dione], for which the EC50 in series [2] (setting [5]) was > 1000 nM. Also, the Kd is > 1000 nM in series [3] and 100 to 1000 nM in series [4].

Turning to `Cn1cc(-c2scnc2Oc2ccccc2)ccc1=O` [Example 18, 1-methyl-5-(4-phenoxythiazol-5-yl)pyridin-2(1H)-one], the “Intrinsic clearance, % Liver Blood Flow” value in series [1] is 69 % Liver Blood Flow. In addition, the 50% effective concentration (EC50) in series [2] (setting [5]) was > 1000 nM. Moreover, the equilibrium dissociation constant (Kd) in series [3] was 100 to 1000 nM.

Regarding `Cn1cc(Oc2cccc(O)c2)c(-c2cn(C)c(=O)c3[nH]ccc23)cc1=O` [Example 24, 4-(5-(3-hydroxyphenoxy)-1-methyl-2-oxo-1,2-dihydropyridin-4-yl)-6-methyl-1,6-dihydro-7H-pyrrolo[2,3-c]pyridin-7-one], in series [1], the “Intrinsic clearance, % Liver Blood Flow” value was 45 % Liver Blood Flow. In addition, the EC50 in series [2] (setting [5]) is 100 to 1000 nM. Moreover, in series [3], the Kd fell in the range of 10 to 100 nM.

As for `Cn1cc(-c2scnc2Oc2ccc(O)cc2)c2cc[nH]c2c1=O` [Example 20, 4-(4-(4-hydroxyphenoxy)thiazol-5-yl)-6-methyl-1,6-dihydro-7H-pyrrolo[2,3-c]pyridin-7-one], the EC50 is 10 to 100 nM in series [2] (setting [5]) and < 100 nM in series [2] (setting [6]). Besides, in series [3], the dissociation constant Kd is 10 to 100 nM.

Turning to `Cc1cc(F)cc(C)c1Oc1c(-c2cn(C)c(=O)c3[nH]ccc23)ccn(C)c1=O` [Example 40, 4-(3-(4-fluoro-2,6-dimethylphenoxy)-1-methyl-2-oxo-1,2-dihydropyridin-4-yl)-6-methyl-1,6-dihydro-7H-pyrrolo[2,3-c]pyridin-7-one], the “Intrinsic clearance, % Liver Blood Flow” value in series [1] is <34 % Liver Blood Flow. Besides, the concentration for a half-maximal effect (EC50) in series [2] (setting [5]) fell in the range of 100 to 1000 nM. In addition, the Kd in series [3] was 100 to 1000 nM; in series [4], 10 to 100 nM.

With `Cc1cc(F)cc(C)c1Oc1c(-c2cn(C)c(=O)c3[nH]c(C(=O)NC(C)(C)C)cc23)ccn(C)c1=O` [Example 42, N-(tert-butyl)-4-(3-(4-fluoro-2,6-dimethylphenoxy)-1-methyl-2-oxo-1,2-dihydropyridin-4-yl)-6-methyl-7-oxo-6,7-dihydro-1H-pyrrolo[2,3-c]pyridine-2-carboxamide], in series [1], the “Intrinsic clearance, % Liver Blood Flow” value is recorded as <34 % Liver Blood Flow. For the same compound, the EC50 in series [2] (setting [5]) was in the range of 100 to 1000 nM. The dissociation constant (Kd) in series [3] was > 1000 nM; in series [4] it was ≤ 10 nM.

Turning to `Cn1cc(Oc2ccccc2)c(-c2cn(C)c(=O)c3[nH]ccc23)cc1=O` [Example 7, 6-methyl-4-(1-methyl-2-oxo-5-phenoxy-1,2-dihydropyridin-4-yl)-1,6-dihydro-7H-pyrrolo[2,3-c]pyridin-7-one], the “Intrinsic clearance, % Liver Blood Flow” value in series [1] is on record as <34 % Liver Blood Flow. Also, the results for the EC50 in series [2] (setting [5]) and in series [2] (setting [6]) were 10 to 100 nM and < 100 nM, respectively. Further, the figures for the Kd in series [3] and in series [4] were 10 to 100 nM and ≤ 10 nM, respectively.

For the compound `Cn1cc(-c2cc(O)ccc2OC2CCC2)c2cc[nH]c2c1=O` [Example 10, 4-(2-cyclobutoxy-5-hydroxyphenyl)-6-methyl-1,6-dihydro-7H-pyrrolo[2,3-c]pyridin-7-one], the “Intrinsic clearance, % Liver Blood Flow” value in series [1] is 93 % Liver Blood Flow. Also, the EC50 in series [2] (setting [5]) is 10 to 100 nM; in series [2] (setting [6]), < 100 nM. Besides, the dissociation constant Kd in series [3] was ≤ 10 nM.

For `Cn1ccc(-c2cn(C)c(=O)c3[nH]ccc23)c(Oc2cccc(O)c2)c1=O` [Example 33, 4-(3-(3-hydroxyphenoxy)-1-methyl-2-oxo-1,2-dihydropyridin-4-yl)-6-methyl-1,6-dihydro-7H-pyrrolo[2,3-c]pyridin-7-one], the “Intrinsic clearance, % Liver Blood Flow” value in series [1] is given as <34 % Liver Blood Flow. The Kd in series [3] is ≤ 10 nM.
